# Where two headings read alike, the source gives them in different places.
# Tests used:
# [1] = target: human α2δ-1 subunit of Cav2.2 calcium channel (Homo sapiens, UniProt P54289); test: Binding assay to human α2δ-1 subunit of Cav2.2 calcium channel ([3H]-Gabapentin); settings: read-out: Ki(nM) alpha2delta Hum
# Procedure: • Binding assay to human α2δ-1 subunit of Cav2.2 calcium channel.
# Human α2δ-1 enriched membranes (2.5 μg) were incubated with 15 nM of radiolabeled [3H]-Gabapentin in assay buffer containing Hepes-KOH 10 mM, pH 7.4.
# (§1) NSB (non specific binding) was measured by adding 10 μM pregabalin. The binding of the test compound was measured at five different concentrations. After 60 min of incubation at 27° C., the binding reaction was terminated by filtering through Multiscreen GF/C (Millipore) presoaked in 0.5% polyethyleneimine in Vacuum Manifold Station, followed by 3 washes with ice-cold filtration buffer containing 50 mM Tris-HCl, pH 7.4.
# (§2) Filter plates were dried at 60° C. for 1 h and 30 μl of scintillation cocktail were added to each well before radioactivity reading.
# (§3) Readings were performed in a Trilux 1450 Microbeta radioactive counter (Perkin Elmer). • Binding assay to human norepinephrine transporter (NET).
# [2] = target: human norepinephrine transporter (NET) (Homo sapiens, UniProt P23975); test: Binding assay to human norepinephrine transporter (NET) ([3H]-Nisoxetin); settings: Table 2, dual compounds, human NET enriched membranes, read-out: Ki(nM) NET Hum
# Procedure: as §3
# Human norepinephrine transporter (NET) enriched membranes (5 μg) were incubated with 5 nM of radiolabeled [3H]-Nisoxetin in assay buffer containing 50 mM Tris-HCl, 120 mM NaCl, 5 mM KCl, pH 7.4.
# as §1, with “desipramine.” for “pregabalin.”, “min” for “min of”, “4°” for “27°”, “C.,” for “C., the”, “Tris-HCl, 0.9% NaCl,” for “Tris-HCl,”
# as §2
# Readings were performed in a Trilux 1450 Microbeta radioactive counter (Perkin Elmer).
# [3] = Table 1, human α2δ-1 enriched membranes
# Sequence of human α2δ-1 subunit of Cav2.2 calcium channel (P54289 25-1103): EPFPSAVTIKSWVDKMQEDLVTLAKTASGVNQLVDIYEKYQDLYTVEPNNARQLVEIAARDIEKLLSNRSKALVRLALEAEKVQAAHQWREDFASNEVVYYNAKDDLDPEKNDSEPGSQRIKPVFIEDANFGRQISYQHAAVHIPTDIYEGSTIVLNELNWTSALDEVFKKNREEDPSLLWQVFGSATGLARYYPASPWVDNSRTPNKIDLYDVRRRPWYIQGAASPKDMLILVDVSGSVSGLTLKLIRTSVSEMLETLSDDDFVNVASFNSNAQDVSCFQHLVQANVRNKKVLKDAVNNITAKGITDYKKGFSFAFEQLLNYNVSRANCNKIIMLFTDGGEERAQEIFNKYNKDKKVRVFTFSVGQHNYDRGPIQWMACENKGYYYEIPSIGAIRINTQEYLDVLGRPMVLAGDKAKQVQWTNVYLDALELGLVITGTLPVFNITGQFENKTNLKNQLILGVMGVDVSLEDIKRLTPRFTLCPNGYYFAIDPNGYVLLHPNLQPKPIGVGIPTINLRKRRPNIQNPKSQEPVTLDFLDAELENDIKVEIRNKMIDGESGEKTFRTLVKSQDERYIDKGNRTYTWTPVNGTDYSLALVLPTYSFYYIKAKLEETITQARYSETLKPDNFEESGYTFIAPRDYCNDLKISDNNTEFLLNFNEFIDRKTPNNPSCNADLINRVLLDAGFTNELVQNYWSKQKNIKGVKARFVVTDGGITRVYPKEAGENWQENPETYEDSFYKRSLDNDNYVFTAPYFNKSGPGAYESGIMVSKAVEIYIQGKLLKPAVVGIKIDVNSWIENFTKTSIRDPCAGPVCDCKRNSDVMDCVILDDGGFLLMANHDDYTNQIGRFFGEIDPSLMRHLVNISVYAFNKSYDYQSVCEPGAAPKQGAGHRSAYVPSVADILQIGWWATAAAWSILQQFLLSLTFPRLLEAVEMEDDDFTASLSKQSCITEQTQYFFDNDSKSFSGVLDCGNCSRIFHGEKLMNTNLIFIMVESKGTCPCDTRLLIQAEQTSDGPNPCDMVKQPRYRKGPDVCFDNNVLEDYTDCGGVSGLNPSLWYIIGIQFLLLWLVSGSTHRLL
# Sequence of human norepinephrine transporter (NET) (P23975 whole entry): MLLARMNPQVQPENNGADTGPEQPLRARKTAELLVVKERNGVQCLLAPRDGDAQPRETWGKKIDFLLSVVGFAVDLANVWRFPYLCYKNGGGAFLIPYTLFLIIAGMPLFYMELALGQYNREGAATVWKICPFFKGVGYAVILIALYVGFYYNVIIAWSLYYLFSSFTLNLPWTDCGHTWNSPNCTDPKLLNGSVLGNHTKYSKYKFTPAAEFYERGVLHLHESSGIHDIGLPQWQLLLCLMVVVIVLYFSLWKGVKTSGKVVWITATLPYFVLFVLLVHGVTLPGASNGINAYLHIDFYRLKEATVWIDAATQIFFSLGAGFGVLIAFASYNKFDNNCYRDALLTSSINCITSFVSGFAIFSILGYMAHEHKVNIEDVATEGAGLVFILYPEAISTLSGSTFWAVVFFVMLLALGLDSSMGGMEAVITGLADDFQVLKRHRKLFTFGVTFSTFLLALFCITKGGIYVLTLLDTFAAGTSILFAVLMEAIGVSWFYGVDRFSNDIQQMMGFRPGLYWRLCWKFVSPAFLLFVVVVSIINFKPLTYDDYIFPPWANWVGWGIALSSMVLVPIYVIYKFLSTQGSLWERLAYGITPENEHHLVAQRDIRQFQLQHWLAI
Structure (SMILES),"Ki [1, 3]",also measured
"CNCCC(Oc1cccc2ncn(C)c(=O)c12)c1cccs1 (stereo not shown) [Example 7, 3-methyl-5-(3-(methylamino)-1-(thiophen-2-yl)propoxy)quinazolin-4(3H)-one]",100 to 500 nM,
"CCNCC[C@@H](Oc1cccc2cnncc12)c1cccs1 [Example 14, (R)-N-ethyl-3-(phthalazin-5-yloxy)-3-(thiophen-2-yl)propan-1-amine]",< 100 nM,
"CNCCC(Oc1cccc2c1CCN(CC(F)F)C2)c1cccs1 (stereo not shown) [Example 3, 3-((2-(2,2-difluoroethyl)-1,2,3,4-tetrahydroisoquinolin-5-yl)oxy)-N-methyl-3-(thiophen-2-yl)propan-1-amine]",100 to 500 nM,"Ki ([1]; Table 2, dual compounds, human α2δ-1 enriched membranes): 100 to 500 nM; Ki [2]: 500 to 1000 nM"
"CCNCC[C@@H](Oc1cccc2cnncc12)c1ccccc1 [Example 13, (R)-N-ethyl-3-phenyl-3-(phthalazin-5-yloxy)propan-1-amine]",500 to 3000 nM,
"CCNCC[C@H](Oc1cccc2ncncc12)c1cccs1 [Example 38, (S)-N-ethyl-3-(quinazolin-5-yloxy)-3-(thiophen-2-yl)propan-1-amine]",500 to 3000 nM,
"CNCCC(Oc1cccc2c(=O)n(C)ccc12)c1cccs1 (stereo not shown) [Example 9, 2-methyl-5-(3-(methylamino)-1-(thiophen-2-yl)propoxy)isoquinolin-1(2H)-one]",100 to 500 nM,
"CNCCC(Oc1cccc2cnncc12)c1cccs1 (stereo not shown) [Example 6, N-methyl-3-(phthalazin-5-yloxy)-3-(thiophen-2-yl)propan-1-amine]",< 100 nM,
"CNCC[C@@H](Oc1cccc2ncncc12)c1cccs1 [Example 37, (R)-N-methyl-3-(quinazolin-5-yloxy)-3-(thiophen-2-yl)propan-1-amine]",< 100 nM,
"CNCCC(OCc1cccc2cnccc12)c1ccccc1 (stereo not shown) [Example 17, 3-(Isoquinolin-5-ylmethoxy)-N-methyl-3-phenylpropan-1-amine]",≥ 3000 nM,
"CNCC[C@@H](Oc1cccc2c1ccc(=O)n2C)c1cccs1 [Example 29, (R)-1-methyl-5-(3-(methylamino)-1-(thiophen-2-yl)propoxy)quinolin-2(1H)-one]",100 to 500 nM,
"CCNCC[C@@H](Oc1cccc2c(=O)n(C)cnc12)c1ccsc1 [Example 41, (R)-8-(3-(ethylamino)-1-(thiophen-3-yl)propoxy)-3-methylquinazolin-4(3H)-one]",< 100 nM,
"CNCC[C@@H](Oc1cccc2ncn(C)c(=O)c12)c1ccsc1 [Example 43, (R)-3-methyl-5-(3-(methylamino)-1-(thiophen-3-yl)propoxyl)quinazolin-4(3H)-one]",100 to 500 nM,
"CNCC[C@H](Oc1cccc2c1CCCN2C)c1cccs1 [Example 23, (S)—N-methyl-3-((1-methyl-1,2,3,4-tetrahydroquinolin-5-yl)oxy)-3-(thiophen-2-yl)propan-1-amine]",500 to 3000 nM,
"CCNCCC(Oc1cccc2cnncc12)c1cccs1 (stereo not shown) [Example 12, N-ethyl-3-(phthalazin-5-yloxy)-3-(thiophen-2-yl)propan-1-amine]",100 to 500 nM,
"CCNCCC(Oc1cccc2c1CCN(C)C2)c1cccs1 (stereo not shown) [Example 27, N-ethyl-3-((2-methyl-1,2,3,4-tetrahydroisoquinolin-5-yl)oxy)-3-(thiophen-2-yl)propan-1-amine]",< 100 nM,
"CCNCC[C@@H](Oc1cc(C)cc2c(=O)n(C)cnc12)c1cccs1 [Example 44, (R)-8-(3-(ethylamino)-1-(thiophen-2-yl)propoxy)-3,6-dimethylquinazolin-4(3H)-one]",100 to 500 nM,
"CNCC[C@@H](Oc1cccc2c1CCN(C)C2)c1cccs1 [Example 26, (R)—N-methyl-3-((2-methyl-1,2,3,4-tetrahydroisoquinolin-5-yl)oxy)-3-(thiophen-2-yl)propan-1-amine]",< 100 nM,
"CCNCC[C@@H](Oc1cccc2c(=O)n(C)cnc12)c1cccs1 [Example 32, (R)-8-(3-(ethylamino)-1-(thiophen-2-yl)propoxy)-3-methylquinazolin-4(3H)-one]",100 to 500 nM,
"CNCC[C@H](Oc1cccc2ncncc12)c1cccs1 [Example 33, (S)-N-methyl-3-(quinazolin-5-yloxy)-3-(thiophen-2-yl)propan-1-amine]",100 to 500 nM,
"CCNCCC(Oc1cccc2cnncc12)c1ccccc1 (stereo not shown) [Example 11, N-ethyl-3-phenyl-3-(phthalazin-5-yloxy)propan-1-amine]",500 to 3000 nM,
"CNCCC(OCc1cccc2ccncc12)c1cccs1 (stereo not shown) [Example 20, 3-(Isoquinolin-8-ylmethoxy)-N-methyl-3-(thiophen-2-yl)propan-1-amine]",≥ 3000 nM,

Structure (SMILES),"Ki [1, 3]",also measured
"CCNCC[C@@H](Oc1cccc2ncncc12)c1ccsc1 [Example 40, (R)-N-ethyl-3-(quinazolin-5-yloxy)-3-(thiophen-3-yl)propan-1-amine]",< 100 nM,
"CNCC[C@H](Oc1cccc2c1ccc(=O)n2C)c1cccs1 [Example 28, (S)-1-methyl-5-(3-(methylamino)-1-(thiophen-2-yl)propoxy)quinolin-2(1H)-one]",500 to 3000 nM,
"CNCC[C@@H](Oc1cc(F)cc2ncn(C)c(=O)c12)c1cccs1 [Example 45, (R)-7-fluoro-3-methyl-5-(3-(methylamino)-1-(thiophen-2-yl)propoxyl)quinazolin-4(3H)-one]",100 to 500 nM,
"CCNCC[C@H](Oc1cccc2c(=O)n(C)cnc12)c1cccs1 [Example 34, (S)-8-(3-(ethylamino)-1-(thiophen-2-yl)propoxy)-3-methylquinazolin-4(3H)-one]",≥ 3000 nM,
"CNCCC(OCc1cccc2cnccc12)c1cccs1 (stereo not shown) [Example 21, 3-(isoquinolin-5-ylmethoxy)-N-methyl-3-(thiophen-2-yl)propan-1-amine]",≥ 3000 nM,
"CNCCC(OCc1cccc2ncccc12)c1cccs1 (stereo not shown) [Example 22, N-methyl-3-(quinolin-5-ylmethoxy)-3-(thiophen-2-yl)propan-1-amine]",≥ 3000 nM,
"CNCC[C@@H](Oc1cccc2c1CCCN2C)c1cccs1 [Example 24, (R)—N-methyl-3-((1-methyl-1,2,3,4-tetrahydroquinolin-5-yl)oxy)-3-(thiophen-2-yl)propan-1-amine]",100 to 500 nM,
"CNCC[C@H](Oc1cccc2cnncc12)c1cccs1 [Example 5, (S)-N-methyl-3-(phthalazin-5-yloxy)-3-(thiophen-2-yl)propan-1-amine]",≥ 3000 nM,
"CCNCC[C@H](Oc1cccc2ncn(C)c(=O)c12)c1cccs1 [Example 36, (S)-5-(3-(ethylamino)-1-(thiophen-2-yl)propoxy)-3-methylquinazolin-4(3H)-one]",≥ 3000 nM,
"CNCC[C@H](Oc1cccc2c1CCN(C)C2)c1cccs1 [Example 25, (S)—N-methyl-3-((2-methyl-1,2,3,4-tetrahydroisoquinolin-5-yl)oxy)-3-(thiophen-2-yl)propan-1-amine]",100 to 500 nM,
"CCNCC[C@@H](Oc1cccc2ncncc12)c1cccs1 [Example 39, (R)-N-ethyl-3-(quinazolin-5-yloxy)-3-(thiophen-2-yl)propan-1-amine]",100 to 500 nM,
"CNCCC(OCc1cccc2ncccc12)c1ccccc1 (stereo not shown) [Example 19, N-methyl-3-phenyl-3-(quinolin-5-ylmethoxy)propan-1-amine]",≥ 3000 nM,
"CNCCC(Oc1cccc2c1CCN(C)C2)c1cccs1 (stereo not shown) [Example 2, N-methyl-3-((2-methyl-1,2,3,4-tetrahydroisoquinolin-5-yl)oxy)-3-(thiophen-2-yl)propan-1-amine]",< 100 nM,
"CCNCC[C@@H](Oc1cccc2c(=O)n(C)ccc12)c1cccs1 [Example 31, (R)-5-(3-(ethylamino)-1-(thiophen-2-yl)propoxy)-2-methylisoquinolin-1(2H)-one]",< 100 nM,
"CCNCC[C@@H](Oc1cccc2c(=O)n(C)ccc12)c1ccsc1 [Example 42, (R)-5-(3-(ethylamino)-1-(thiophen-3-yl)propoxy)-2-methylisoquinolin-1(2H)-one]",< 100 nM,
"CCNCC[C@H](Oc1cccc2c(=O)n(C)ccc12)c1cccs1 [Example 35, (S)-5-(3-(ethylamino)-1-(thiophen-2-yl)propoxy)-2-methylisoquinolin-1(2H)-one]",500 to 3000 nM,
"CNCCC(Oc1cccc2c(=O)n(C)cnc12)c1cccs1 (stereo not shown) [Example 8, 3-methyl-8-(3-(methylamino)-1-(thiophen-2-yl)propoxy)quinazolin-4(3H)-one]",100 to 500 nM,
"CNCC[C@@H](Oc1cccc2cnncc12)c1cccs1 [Example 4, (R)—N-Methyl-3-(phthalazin-5-yloxy)-3-(thiophen-2-yl)propan-1-amine]",100 to 500 nM,
"CNCCC(OCc1cccc2ccncc12)c1ccccc1 (stereo not shown) [Example 18, 3-(isoquinolin-8-ylmethoxy)-N-methyl-3-phenylpropan-1-amine]",≥ 3000 nM,
"CCNCC[C@@H](Oc1cccc2ncn(C)c(=O)c12)c1cccs1 [Example 30, (R)-5-(3-(ethylamino)-1-(thiophen-2-yl)propoxy)-3-methylquinazolin-4(3H)-one]",< 100 nM,
